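Values below derive from 48-hour exposures of cells grown in 96-well plates, with endpoints linearly interpolated between the two concentrations bracketing the appropriate inhibition level. TGI is the concentration that stops growth completely.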
Assays:
Assay in all cases: NCI anticancer screen, dose series, 48 h
[1] = system: 786-0 renal
[2] = system: A498 renal
[3] = system: A549 NSCLC
[4] = system: ACHN renal
[5] = system: CAKI-1 renal
[6] = system: CCRF-CEM leukemia
[7] = system: COLO 205 colon
[8] = system: DLD-1 colon
[9] = system: DMS 114 small cell lung
[10] = system: DMS 273 small cell lung
[11] = system: EKVX NSCLC
[12] = system: HCC-2998 colon
[13] = system: HCT-116 colon
[14] = system: HCT-15 colon
[15] = system: HL-60(TB) leukemia
[16] = system: HOP-18 NSCLC
[17] = system: HOP-62 NSCLC
[18] = system: HOP-92 NSCLC
[19] = system: HT29 colon
[20] = system: IGROV1 ovarian
[21] = system: K-562 leukemia
[22] = system: KM12 colon
[23] = system: KM20L2 colon
[24] = system: LOX IMVI melanoma
[25] = system: LXFL 529 NSCLC
[26] = system: M14 melanoma
[27] = system: MALME-3M melanoma
[28] = system: MOLT-4 leukemia
[29] = system: NCI-H226 lung
[30] = system: NCI-H23 lung
[31] = system: NCI-H460 lung
[32] = system: NCI-H522 lung
[33] = system: OVCAR-3 ovarian
[34] = system: OVCAR-5 ovarian
[35] = system: OVCAR-8 ovarian
[36] = system: RPMI-8226 leukemia
[37] = system: RXF 393 renal
[38] = system: SF-268 CNS
[39] = system: SF-295 CNS
[40] = system: SF-539 CNS
[41] = system: SK-MEL-2 melanoma
[42] = system: SK-MEL-28 melanoma
[43] = system: SK-MEL-5 melanoma
[44] = system: SK-OV-3 ovarian
[45] = system: SN12C renal
[46] = system: SNB-19 CNS
[47] = system: SNB-75 CNS
[48] = system: SNB-78 CNS
[49] = system: SR leukemia
[50] = system: SW-620 colon
[51] = system: TK-10 renal
[52] = system: U251 CNS
[53] = system: UACC-257 melanoma
[54] = system: UACC-62 melanoma
[55] = system: UO-31 renal
[56] = system: XF 498 CNS
[57] = system: M19-MEL melanoma
[58] = system: OVCAR-4 ovarian

Compound: N#CC1=C(Cl)NC(Cl)=C(C#N)C1c1c(Cl)cccc1Cl
- TGI [1]: 68.5 µM
- TGI [2]: > 100 µM
- TGI [3]: 83.6 µM
- TGI [4]: > 100 µM
- TGI [5]: > 100 µM
- TGI [6]: 54.5 µM
- TGI [7]: 32.8 µM
- TGI [8]: 46.9 µM
- TGI [9]: 28.3 µM
- TGI [10]: 34.5 µM
- TGI [11]: > 100 µM
- TGI [12]: 47 µM
- TGI [13]: 34.3 µM
- TGI [14]: 29.7 µM
- TGI [15]: 37.5 µM
- TGI [16]: 91.5 µM
- TGI [17]: > 100 µM
- TGI [18]: 80 µM
- TGI [19]: > 100 µM
- TGI [20]: > 100 µM
- TGI [21]: 46.9 µM
- TGI [22]: 48.6 µM
- TGI [23]: 76.9 µM
- TGI [24]: 31 µM
- TGI [25]: > 100 µM
- TGI [26]: > 100 µM
- TGI [27]: > 100 µM
- TGI [28]: > 100 µM
- TGI [29]: > 100 µM
- TGI [30]: > 100 µM
- TGI [31]: 38.3 µM
- TGI [32]: 38.1 µM
- TGI [33]: 64.4 µM
- TGI [34]: > 100 µM
- TGI [35]: 80 µM
- TGI [36]: 46.4 µM
- TGI [37]: 59 µM
- TGI [38]: 99.6 µM
- TGI [39]: > 100 µM
- TGI [40]: > 100 µM
- TGI [41]: > 100 µM
- TGI [42]: > 100 µM
- TGI [43]: 39.1 µM
- TGI [44]: 88.8 µM
- TGI [45]: 79.5 µM
- TGI [46]: > 100 µM
- TGI [47]: > 100 µM
- TGI [48]: > 100 µM
- TGI [49]: > 100 µM
- TGI [50]: 27 µM
- TGI [51]: > 100 µM
- TGI [52]: 48.5 µM
- TGI [53]: 50.3 µM
- TGI [54]: 73.4 µM
- TGI [55]: > 100 µM
- TGI [56]: 35.5 µM

Compound: O=C1C2Nc3ccccc3SC2C(=O)N1c1ccccc1C(F)(F)F (centres undefined)
- TGI [1]: 68.5 µM
- TGI [3]: > 100 µM
- TGI [4]: > 100 µM
- TGI [5]: > 100 µM
- TGI [6]: > 100 µM
- TGI [8]: > 100 µM
- TGI [9]: > 100 µM
- TGI [11]: > 100 µM
- TGI [12]: 35.7 µM
- TGI [13]: > 100 µM
- TGI [14]: 65.5 µM
- TGI [15]: 28.1 µM
- TGI [16]: > 100 µM
- TGI [17]: > 100 µM
- TGI [18]: > 100 µM
- TGI [19]: > 100 µM
- TGI [20]: > 100 µM
- TGI [21]: > 100 µM
- TGI [22]: > 100 µM
- TGI [24]: > 100 µM
- TGI [25]: > 100 µM
- TGI [26]: 75.8 µM
- TGI [57]: > 100 µM
- TGI [27]: > 100 µM
- TGI [28]: > 100 µM
- TGI [29]: > 100 µM
- TGI [30]: 60.3 µM
- TGI [31]: > 100 µM
- TGI [32]: 56.3 µM
- TGI [33]: 60.6 µM
- TGI [58]: > 100 µM
- TGI [34]: > 100 µM
- TGI [35]: > 100 µM
- TGI [36]: > 100 µM
- TGI [37]: 23.7 µM
- TGI [38]: > 100 µM
- TGI [39]: 46.2 µM
- TGI [40]: 41 µM
- TGI [41]: > 100 µM
- TGI [42]: > 100 µM
- TGI [43]: > 100 µM
- TGI [44]: > 100 µM
- TGI [45]: 78.2 µM
- TGI [46]: > 100 µM
- TGI [48]: 53.6 µM
- TGI [49]: > 100 µM
- TGI [50]: > 100 µM
- TGI [51]: > 100 µM
- TGI [52]: 45.2 µM
- TGI [53]: > 100 µM
- TGI [54]: > 100 µM
- TGI [55]: > 100 µM
- TGI [56]: 53.2 µM
